Experimental data: ChEMBL document CHEMBL4402589, “Discovery of a Potent and Selective NF-κB-Inducing Kinase (NIK) Inhibitor That Has Anti-inflammatory Effects in Vitro and in Vivo” (J Med Chem, 2020)
Activity calls are given as the source filed them. The rule behind the calls is not given here.

Tests used:
[1] = target: T1, Mitogen-activated protein kinase kinase kinase 14 (Homo sapiens, UniProt Q99558); experiment: Inhibition of recombinant human N-terminal GST-tagged NIK (318 to 947 residues) expressed in baculovirus infected Sf9 cells using ultrapure ATP as substrate measured after 1 hr by ADP-glo assay
[2] = Stability of the compound in pH 1 aqueous solution; format: physicochemical; conditions: buffer
[3] = target: Mitogen-activated protein kinase kinase kinase 14 (Mus musculus) (UniProt Q9WUL6); experiment: Inhibition of NIK in NIK/p100 adenoviruses infected C57BL/6 mouse primary hepatocytes assessed as suppression of NIK-mediated proteolysis of p100 to p52 by measuring reduction in p52 level at 5 uM measured after 16 hrs by Western blot analysis
Mus musculus = experiment: Antiinflammatory activity in CCl4-induced C57BL/6 mouse model of liver injury assessed as reduction in immune cell infiltration in liver at 25 mg/kg, po administered 30 mins prior to CCl4 addition followed by compound redosing at 3 hrs interval for 9 hrs and measured 12 hrs […] by F4/80/DAPI staining based immunofluorescence assay; format: functional, organism-based
[4] = target: T1, Mitogen-activated protein kinase kinase kinase 14; experiment: Inhibition of human NIK using ATP as substrate by kinase-glo assay
Hepatocyte = experiment: Down regulation of NIK expression in NIK/p100 adenoviruses infected C57BL/6 mouse primary hepatocytes at 5 uM measured after 16 hrs by Western blot analysis; format: functional, cell-based

T1 sequence (Q99558 whole entry, the tested form may be a part): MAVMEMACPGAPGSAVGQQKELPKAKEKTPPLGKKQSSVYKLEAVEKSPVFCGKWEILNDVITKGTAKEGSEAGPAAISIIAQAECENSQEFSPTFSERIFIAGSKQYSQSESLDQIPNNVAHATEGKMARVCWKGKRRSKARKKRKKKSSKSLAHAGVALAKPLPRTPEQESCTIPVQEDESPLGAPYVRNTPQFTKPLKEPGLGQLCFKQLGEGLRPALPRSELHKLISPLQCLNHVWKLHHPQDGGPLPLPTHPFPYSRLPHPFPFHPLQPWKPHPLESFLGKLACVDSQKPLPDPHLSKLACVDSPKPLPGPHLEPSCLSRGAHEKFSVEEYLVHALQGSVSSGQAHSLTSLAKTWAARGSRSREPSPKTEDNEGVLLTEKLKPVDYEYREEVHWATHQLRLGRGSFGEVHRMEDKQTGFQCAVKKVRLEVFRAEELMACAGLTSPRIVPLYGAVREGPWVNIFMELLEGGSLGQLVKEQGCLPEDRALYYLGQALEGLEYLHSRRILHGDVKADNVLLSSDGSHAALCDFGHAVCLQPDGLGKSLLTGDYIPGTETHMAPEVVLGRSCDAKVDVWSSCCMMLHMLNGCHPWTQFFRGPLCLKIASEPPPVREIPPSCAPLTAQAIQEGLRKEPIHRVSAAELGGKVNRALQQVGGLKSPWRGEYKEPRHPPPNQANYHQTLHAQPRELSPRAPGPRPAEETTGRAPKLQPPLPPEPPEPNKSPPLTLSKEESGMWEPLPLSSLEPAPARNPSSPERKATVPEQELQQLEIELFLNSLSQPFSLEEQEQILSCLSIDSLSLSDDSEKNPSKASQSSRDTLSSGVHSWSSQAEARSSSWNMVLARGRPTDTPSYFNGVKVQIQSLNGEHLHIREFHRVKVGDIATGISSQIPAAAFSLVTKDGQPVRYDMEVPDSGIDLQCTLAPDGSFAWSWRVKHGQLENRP
Chain of Mitogen-activated protein kinase kinase kinase 14 (Mus musculus) (Q9WUL6 whole entry): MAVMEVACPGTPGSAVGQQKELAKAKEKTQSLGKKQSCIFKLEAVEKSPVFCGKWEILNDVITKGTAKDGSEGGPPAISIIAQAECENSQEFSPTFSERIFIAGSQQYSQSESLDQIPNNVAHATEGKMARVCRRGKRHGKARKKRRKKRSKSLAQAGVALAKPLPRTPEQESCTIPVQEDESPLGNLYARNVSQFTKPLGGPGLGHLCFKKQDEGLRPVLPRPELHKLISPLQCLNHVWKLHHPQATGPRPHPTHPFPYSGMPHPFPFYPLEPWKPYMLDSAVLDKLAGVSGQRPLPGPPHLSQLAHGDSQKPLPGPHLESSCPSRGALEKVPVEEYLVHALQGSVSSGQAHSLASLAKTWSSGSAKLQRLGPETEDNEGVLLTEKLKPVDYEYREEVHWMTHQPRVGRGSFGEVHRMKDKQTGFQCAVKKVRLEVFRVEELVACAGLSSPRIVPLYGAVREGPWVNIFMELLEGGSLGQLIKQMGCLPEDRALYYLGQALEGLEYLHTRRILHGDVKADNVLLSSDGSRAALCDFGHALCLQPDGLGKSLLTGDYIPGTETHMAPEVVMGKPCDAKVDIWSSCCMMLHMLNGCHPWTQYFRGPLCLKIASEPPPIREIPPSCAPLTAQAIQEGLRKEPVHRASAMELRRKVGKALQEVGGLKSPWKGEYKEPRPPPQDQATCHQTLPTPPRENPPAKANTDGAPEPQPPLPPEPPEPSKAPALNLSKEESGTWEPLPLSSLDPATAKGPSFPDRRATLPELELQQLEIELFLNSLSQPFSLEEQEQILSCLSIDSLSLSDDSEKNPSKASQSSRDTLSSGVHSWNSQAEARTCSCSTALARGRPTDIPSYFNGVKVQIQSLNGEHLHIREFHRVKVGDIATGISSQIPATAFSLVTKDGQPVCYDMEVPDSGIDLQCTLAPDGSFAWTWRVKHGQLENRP

| SMILES | IC50 [1] [nM] | other results |
| --- | --- | --- |
| CC(O)(C#Cc1cc(-n2ccc3cnc(N)nc32)ccc1F)c1nccs1 (centres undefined) | 204 | – |
| Cc1nc(N)nc2c1ccn2-c1ccnc(C#CC2(O)CCN(C)C2=O)c1 (centres undefined) | 85.2 | – |
| CC(O)(C#Cc1cc(-n2ccc3cnc(N)nc32)ccn1)c1nccs1 (centres undefined) | 22.4 | Stability [2]: Unstable |
| CCC(O)(C#Cc1cc(-n2ccc3cnc(N)nc32)ccn1)c1nccs1 (centres undefined) | 2290 | – |
| CC(C)(O)C#Cc1cccc(-c2c[nH]c3cnc(N)nc23)c1 | 720 | – |
| CC(O)(C#Cc1cc(-n2ccc3cnc(N)nc32)ccc1C#N)c1nccs1 (centres undefined) | 219 | – |
| CC(O)(C#Cc1cccc(-c2c[nH]c3cnc(N)nc23)c1)C1CCCCC1 (centres undefined) | 2030 | – |
| COc1cccc(C(C)(O)C#Cc2cccc(-c3c[nH]c4cnc(N)nc34)c2)n1 (centres undefined) | > 10000 | – |
| CN(C)C(=O)c1ccc(-n2ccc3cnc(N)nc32)cc1C#CC(C)(O)c1nccs1 (centres undefined) | > 10000 | – |
| Cc1ccc(C#CC(C)(O)c2nccs2)cc1-n1ccc2cnc(N)nc21 (centres undefined) | 335 | – |
| Nc1ncc2ccn(-c3ccnc(C#CC4(O)CCC4)c3)c2n1 | 388 | – |
| CC(O)(C#Cc1cc(F)cc(-c2c[nH]c3cnc(N)nc23)c1)c1nccs1 (centres undefined) | 319 | – |
| Cc1cc(C(C)(O)C#Cc2cc(-n3ccc4cnc(N)nc43)ccn2)no1 (centres undefined) | 120 | – |
| CN1CCC(O)(C#Cc2cccc(-c3c[nH]c4cnc(N)nc34)c2)C1=O (centres undefined) | 410 | – |
| CC(O)(C#Cc1cc(-n2ccc3cnc(N)nc32)c(F)cn1)c1nccs1 (centres undefined) | 87.3 | – |
| CCc1nc(N)nc2c1ccn2-c1ccnc(C#CC2(O)CCN(C)C2=O)c1 (centres undefined) | 190 | – |
| CC(O)(C#Cc1cccc(-c2c[nH]c3cnc(N)nc23)c1)C(=O)N1CCCC1 (centres undefined) | > 10000 | – |
| Nc1ncc2[nH]cc(-c3cccc(C#CC4(O)CCCC4)c3)c2n1 | 475 | – |
| CN1CCC(O)(C#Cc2cc(-n3ccc4ccc(N)nc43)ccn2)C1=O (centres undefined) | 2480 | – |
| CC(O)(C#Cc1ccc(F)c(-c2c[nH]c3cnc(N)nc23)c1)c1nccs1 (centres undefined) | 85.5 | Stability [2]: Stable |
| CC(O)(C#Cc1cccc(-n2cc(Cl)c3cnc(N)nc32)c1)c1nccs1 (centres undefined) | 2060 | – |
| CC(O)(C#Cc1cncc(-n2ccc3cnc(N)nc32)c1)c1nccs1 (centres undefined) | 1860 | – |
| Cc1ccc(-n2ccc3cnc(N)nc32)cc1C#CC(C)(O)c1nccs1 (centres undefined) | 11700 | – |
| C[C@@](O)(C#Cc1ccc2c(c1)N(c1nc(N)ncc1Cl)CC2)c1nccs1 | 15.1 | inhibition [3]: Active; Activity (Mus musculus): Active; IC50 [4]: 4.2 nM; Activity (Hepatocyte): inactive |
| CC(O)(C#Cc1cccc(-n2ccc3cnc(N)nc32)c1)c1nccs1 (centres undefined) | 303 | – |
| CC(O)(C#Cc1cc(-n2ccc3cnc(N)nc32)ccn1)C(=O)N1CCCC1 (centres undefined) | 6160 | – |
| CC(O)(C#Cc1cccc(-c2c[nH]c3cnc(N)nc23)c1)c1cnccn1 (centres undefined) | 468 | – |
| CC(O)(C#Cc1cc(-n2ccc3cnc(N)nc32)ccn1)c1cnccn1 (centres undefined) | 1640 | – |
